This is an account of results in patent US20260206755A1, “COMPOUNDS AND COMPOSITIONS HAVING KNOCK-DOWN OR BLOOD FEED INHIBITION ACTIVITY AGAINST INSECT PESTS” (priority 2017, published 2026).

The structures appear in SMILES notation. Read-outs that look alike come from different tables or passages of the source.

The data set concerns Anopheles stephensi. Description: Anopheles stephensi treated well plate contact test: knockdown and mortality. Format: in vivo. The following applies: for mortality at 0.2 ppm / pest or weed control at 0.2 ppm / mortality at 2 ppm / pest or weed control at 2 ppm / mortality at 20 ppm / pest or weed control at 20 ppm / mortality at 200 ppm / pest or weed control at 200 ppm / mortality at 0.02 ppm / pest or weed control at 0.02 ppm: Anopheles stephensi; for pest or weed control at 0.2 ppm / pest or weed control at 2 ppm / pest or weed control at 20 ppm / pest or weed control at 200 ppm / Knock Down, with TFNA-AM / pest or weed control at 0.02 ppm: knockdown after 1 hour; for pest or weed control at 0.2 ppm / pest or weed control at 2 ppm / pest or weed control at 20 ppm / pest or weed control at 200 ppm / pest or weed control at 0.02 ppm: read-out: Knock Down, without TFNA-AM; for mortality at 200 ppm / pest or weed control at 200 ppm: test compound 200 ppm; for pest or weed control at 200 ppm: adult females. Put shortly:
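Well surfaces coated with ethanol solution of compound at a defined concentration, alone or with 2 ppm TFNA-AM, then dried. Five non-blood-fed 2–5-day-old adult females per well, fed 10% sucrose; knockdown scored at 1 hour, mortality at 24 and 48 hours, replicate means reported.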

The mark [1] stands for this setting: test compound 0.2 ppm, without TFNA-AM, after 24 hours, read-out: mortality % 24, without TFNA-AM.
The mark [2] stands for this setting: test compound 0.2 ppm, without TFNA-AM, after 48 hours, read-out: mortality % 48, without TFNA-AM.
The mark [3] stands for this setting: test compound 0.2 ppm, without TFNA-AM.
[4] abbreviates: test compound 2 ppm, without TFNA-AM, after 24 hours, read-out: mortality % 24, without TFNA-AM.
The mark [5] stands for this setting: test compound 2 ppm, without TFNA-AM, after 48 hours, read-out: mortality % 48, without TFNA-AM.
The mark [6] stands for this setting: test compound 2 ppm, without TFNA-AM.
Setting [7] is: test compound 20 ppm, without TFNA-AM, after 24 hours, read-out: mortality % 24, without TFNA-AM.
Setting [8] is: test compound 20 ppm, without TFNA-AM, after 48 hours, read-out: mortality % 48, without TFNA-AM.
[9] abbreviates: test compound 20 ppm, without TFNA-AM.
The mark [10] stands for this setting: without TFNA-AM, after 24 hours, read-out: mortality % 24, without TFNA-AM.
Where [11] appears, read: without TFNA-AM, after 48 hours, read-out: mortality % 48, without TFNA-AM.
Setting [12] is: test compound 0.2 ppm plus 2 ppm TFNA-AM, after 48 hours.
Setting [13] is: test compound 0.2 ppm plus 2 ppm TFNA-AM.
Setting [14] is: test compound 2 ppm plus 2 ppm TFNA-AM, after 48 hours.
The mark [15] stands for this setting: test compound 2 ppm plus 2 ppm TFNA-AM.
Where [16] appears, read: test compound 20 ppm plus 2 ppm TFNA-AM, after 24 hours.
[17] abbreviates: test compound 20 ppm plus 2 ppm TFNA-AM, after 48 hours.
Setting [18] is: test compound 20 ppm plus 2 ppm TFNA-AM.
[19] abbreviates: test compound 200 ppm plus 2 ppm TFNA-AM, after 24 hours.
[20] abbreviates: test compound 200 ppm plus 2 ppm TFNA-AM, after 48 hours.
[21] abbreviates: test compound 200 ppm plus 2 ppm TFNA-AM.
Setting [22] is: test compound 0.02 ppm, without TFNA-AM, after 24 hours, read-out: mortality % 24, without TFNA-AM.
Where [23] appears, read: test compound 0.02 ppm, without TFNA-AM, after 48 hours, read-out: mortality % 48, without TFNA-AM.
[24] abbreviates: test compound 0.02 ppm, without TFNA-AM.
Where [25] appears, read: test compound 0.02 ppm plus 2 ppm TFNA-AM, after 24 hours.
[26] abbreviates: test compound 0.02 ppm plus 2 ppm TFNA-AM, after 48 hours.
The mark [27] stands for this setting: test compound 0.02 ppm plus 2 ppm TFNA-AM.
The mark [28] stands for this setting: test compound 0.2 ppm plus 2 ppm TFNA-AM, after 24 hours.
Where [29] appears, read: test compound 2 ppm plus 2 ppm TFNA-AM, after 24 hours.
Where [30] appears, read: 24 h, read-out: mortality % 24, without TFNA-AM.
Setting [31] is: 48 h, read-out: mortality % 48, without TFNA-AM.

In the case of `CN/C(=N/CC1CCOC1)N[N+](=O)[O-]` (stereo not shown) [Dinotefuran], the mortality at 0.2 ppm was determined as 0% under setting [1] and 0% under setting [2]. The pest or weed control at 0.2 ppm under setting [3] amounted to 0%. Further, the mortality at 2 ppm by setting is: under setting [4], 40%; under setting [5], 40%. In addition, under setting [6], the pest or weed control at 2 ppm came out at 0%. Further, the mortality at 20 ppm under setting [7] was 40% and the mortality at 20 ppm under setting [8] is 80%. Also, the pest or weed control at 20 ppm under setting [9] came to 0%. For the same molecule, the mortality at 200 ppm is, setting by setting: under setting [10], 100%; under setting [11], 100%. Besides, the pest or weed control at 200 ppm (without TFNA-AM) is 40%. The “mortality % 48, with TFNA-AM” value reads like this: under setting [12], 60%; under setting [14], 60%; under setting [17], 100%; under setting [20], 100%. The “Knock Down, with TFNA-AM” value under setting [13] is recorded as 100%; the “Knock Down, with TFNA-AM” value under setting [15] came to 100%; the “Knock Down, with TFNA-AM” value under setting [18] stood at 100%; the “Knock Down, with TFNA-AM” value under setting [21] worked out at 100%. For the same molecule, the “mortality % 24, with TFNA-AM” value under setting [16] was determined as 100% and the “mortality % 24, with TFNA-AM” value under setting [19] is 100%.
With `CCOc1ccc(C(C)(C)COCc2cccc(Oc3ccccc3)c2)cc1` [Etofenprox], the mortality at 0.02 ppm stood at 0% under setting [22] and 0% under setting [23]. Further, under setting [24], the pest or weed control at 0.02 ppm is 0%. Also, the mortality at 0.2 ppm runs as follows: under setting [1], 20%; under setting [2], 20%. For the same molecule, under setting [3], the pest or weed control at 0.2 ppm was determined as 0%. In addition, the mortality at 2 ppm reads like this: under setting [4], 80%; under setting [5], 80%. Under setting [6], the pest or weed control at 2 ppm was 0%. Besides, the mortality at 20 ppm reads like this: under setting [7], 100%; under setting [8], 100%. For the same molecule, under setting [9], the pest or weed control at 20 ppm stood at 60%. For the same molecule, the “mortality % 24, with TFNA-AM” value was determined as 60% under setting [25], 100% under setting [28], 100% under setting [29] and 100% under setting [16]. In addition, the “mortality % 48, with TFNA-AM” value is, setting by setting: under setting [26], 60%; under setting [12], 100%; under setting [14], 100%; under setting [17], 100%. Further, the “Knock Down, with TFNA-AM” value is, setting by setting: under setting [27], 100%; under setting [13], 100%; under setting [15], 100%; under setting [18], 100%.
As for `CCOc1cc(C(C)(C)C)ccc1C1COC(c2c(F)cccc2F)=N1` (stereo not shown) [Etoxazole], the mortality at 0.2 ppm by setting is: under setting [1], 0%; under setting [2], 0%. Under setting [3], the pest or weed control at 0.2 ppm was 0%. For the same molecule, the mortality at 2 ppm by setting is: under setting [4], 0%; under setting [5], 0%. Moreover, under setting [6], the pest or weed control at 2 ppm was 0%. Besides, the mortality at 20 ppm is, setting by setting: under setting [7], 0%; under setting [8], 0%. Besides, under setting [9], the pest or weed control at 20 ppm was 0%. In addition, the mortality at 200 ppm under setting [10] was 0% and the mortality at 200 ppm under setting [11] was 0%. Moreover, the pest or weed control at 200 ppm (without TFNA-AM) is 0%. In addition, the “mortality % 24, with TFNA-AM” value runs as follows: under setting [28], 40%; under setting [29], 60%; under setting [16], 60%; under setting [19], 80%. The “mortality % 48, with TFNA-AM” value is given as 40% under setting [12], 40% under setting [14], 60% under setting [17] and 80% under setting [20]. Moreover, the “Knock Down, with TFNA-AM” value was 100% under setting [13], 100% under setting [15], 100% under setting [18] and 100% under setting [21].
In the case of `COP(=S)(OC)Oc1ccc([N+](=O)[O-])c(C)c1` [Fenitrothion], the mortality at 0.02 ppm turned out to be 0% under setting [30] and 0% under setting [31]. Besides, the mortality at 0.2 ppm was determined as 20% under setting [30] and 100% under setting [31]. For the same molecule, the mortality at 2 ppm under setting [30] was determined as 100% and the mortality at 2 ppm under setting [31] was 100%. The mortality at 20 ppm is 100% under setting [30] and 100% under setting [31]. Moreover, the pest or weed control at 0.02 ppm under setting [24] worked out at 0%. The pest or weed control at 0.2 ppm under setting [3] is 0%. Moreover, the pest or weed control at 2 ppm under setting [6] worked out at 0%. In addition, the pest or weed control at 20 ppm under setting [9] came to 0%. For the same molecule, the “mortality % 24, with TFNA-AM” value under setting [25] is listed as 40%; the “mortality % 24, with TFNA-AM” value under setting [28] stood at 80%; the “mortality % 24, with TFNA-AM” value under setting [29] was 100%; the “mortality % 24, with TFNA-AM” value under setting [16] amounted to 100%. Moreover, the “mortality % 48, with TFNA-AM” value reads like this: under setting [26], 40%; under setting [12], 100%; under setting [14], 100%; under setting [17], 100%. The “Knock Down, with TFNA-AM” value came to 100% under setting [27], 100% under setting [13], 100% under setting [15] and 100% under setting [18].
`CCOC(=O)NCCOc1ccc(Oc2ccccc2)cc1` [Fenoxycarb]: the mortality at 0.2 ppm reads like this: under setting [1], 0%; under setting [2], 0%. In addition, under setting [3], the pest or weed control at 0.2 ppm was 0%. The mortality at 2 ppm came out at 0% under setting [4] and 0% under setting [5]. Moreover, the pest or weed control at 2 ppm under setting [6] came out at 0%. The mortality at 20 ppm under setting [7] amounted to 0% and the mortality at 20 ppm under setting [8] was 0%. Besides, the pest or weed control at 20 ppm under setting [9] worked out at 20%. Further, the mortality at 200 ppm reads like this: under setting [10], 0%; under setting [11], 0%. Also, the pest or weed control at 200 ppm (without TFNA-AM) came out at 20%. Besides, the “mortality % 24, with TFNA-AM” value is given as 40% under setting [28], 80% under setting [29], 80% under setting [16] and 80% under setting [19]. The “mortality % 48, with TFNA-AM” value under setting [12] was determined as 40%; the “mortality % 48, with TFNA-AM” value under setting [14] is given as 80%; the “mortality % 48, with TFNA-AM” value under setting [17] was found to be 80%; the “mortality % 48, with TFNA-AM” value under setting [20] is recorded as 80%. Besides, the “Knock Down, with TFNA-AM” value reads like this: under setting [13], 100%; under setting [15], 100%; under setting [18], 100%; under setting [21], 100%.
As to `N#Cc1nn(-c2c(Cl)cc(C(F)(F)F)cc2Cl)c(N)c1[S+]([O-])C(F)(F)F` (stereo not shown) [Fipronil], the mortality at 0.02 ppm reads like this: under setting [22], 0%; under setting [23], 20%. Moreover, the pest or weed control at 0.02 ppm under setting [24] amounted to 0%. Besides, the mortality at 0.2 ppm under setting [1] is 20% and the mortality at 0.2 ppm under setting [2] was determined as 40%. In addition, the pest or weed control at 0.2 ppm under setting [3] turned out to be 0%. The mortality at 2 ppm reads like this: under setting [4], 40%; under setting [5], 100%. In addition, under setting [6], the pest or weed control at 2 ppm was determined as 0%. In addition, the mortality at 20 ppm is, setting by setting: under setting [7], 100%; under setting [8], 100%. The pest or weed control at 20 ppm under setting [9] was found to be 0%. Also, the “mortality % 24, with TFNA-AM” value was 0% under setting [25], 60% under setting [28], 80% under setting [29] and 100% under setting [16]. Also, the “mortality % 48, with TFNA-AM” value runs as follows: under setting [26], 0%; under setting [12], 100%; under setting [14], 100%; under setting [17], 100%. Moreover, the “Knock Down, with TFNA-AM” value under setting [27] is 100%; the “Knock Down, with TFNA-AM” value under setting [13] is given as 100%; the “Knock Down, with TFNA-AM” value under setting [15] worked out at 100%; the “Knock Down, with TFNA-AM” value under setting [18] is 100%.

One may read the mortality as the percentage killed.
